# The source made the active and inactive calls. The calls are words filed in the database; no cut-off is given here.
# How the values were obtained:
# [1] = AUC (0-infinity) in two-kidney two clip renovascular hypertensive Sprague-Dawley rat model at 15 mg/kg, po by HPLC-MS/MS analysis; type: ADME, organism-based; design: time infinity, route oral, dose 15 mg/kg; settings: in vivo
# [2] = Cmax in two-kidney two clip renovascular hypertensive Sprague-Dawley rat model at 15 mg/kg, po by HPLC-MS/MS analysis; type: ADME, organism-based; design: route oral, dose 15 mg/kg; settings: in vivo
# [3] = Cmax in two-kidney two clip renovascular hypertensive Sprague-Dawley rat model at 30 mg/kg, po by HPLC-MS/MS analysis; type: ADME, organism-based; design: route oral, dose 30 mg/kg; settings: in vivo
# [4] = AUC (0-infinity) in two-kidney two clip renovascular hypertensive Sprague-Dawley rat model at 5 mg/kg, po by HPLC-MS/MS analysis; type: ADME, organism-based; design: route oral, time infinity, dose 5 mg/kg; settings: in vivo
# [5] = AUC (0-t) in two-kidney two clip renovascular hypertensive Sprague-Dawley rat model at 30 mg/kg, po by HPLC-MS/MS analysis; type: ADME, organism-based; design: dose 30 mg/kg; settings: in vivo
# [6] = AUC (0-t) in two-kidney two clip renovascular hypertensive Sprague-Dawley rat model at 15 mg/kg, po by HPLC-MS/MS analysis; type: ADME, organism-based; design: dose 15 mg/kg; settings: in vivo
# Rattus norvegicus [7] = assay: Antihypertensive activity against two-kidney two clip renovascular hypertensive Sprague-Dawley rat model assessed as decrease in diastolic blood pressure at 15 to 30 mg/kg, po measured after 4 days of treatment by noninvasive sphygmomanometry; type: functional, organism-based; settings: dose 15-30 mg/kg, time 4.0 day
# [8] = Cmax in two-kidney two clip renovascular hypertensive Sprague-Dawley rat model at 5 mg/kg, po by HPLC-MS/MS analysis; type: ADME, organism-based; design: route oral, dose 5 mg/kg; settings: in vivo
# [9] = target: T1, Type-1 angiotensin II receptor (Homo sapiens, UniProt P30556); assay: Binding affinity to AT1R (unknown origin) expressed in Escherichia coli strain BL 21 (DE3) incubated for 20 mins by SDS PAGE analysis
# T1 sequence (P30556 whole entry): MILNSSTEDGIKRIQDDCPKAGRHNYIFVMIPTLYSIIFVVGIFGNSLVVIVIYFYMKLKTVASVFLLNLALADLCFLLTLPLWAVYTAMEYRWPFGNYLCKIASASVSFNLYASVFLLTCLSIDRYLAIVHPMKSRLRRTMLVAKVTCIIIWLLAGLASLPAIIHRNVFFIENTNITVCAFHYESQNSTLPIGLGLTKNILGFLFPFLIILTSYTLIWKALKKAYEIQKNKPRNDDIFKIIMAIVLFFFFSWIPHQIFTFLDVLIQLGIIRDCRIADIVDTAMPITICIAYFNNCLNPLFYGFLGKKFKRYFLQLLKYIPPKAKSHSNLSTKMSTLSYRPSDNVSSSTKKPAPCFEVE
# [10] = Toxicity in two-kidney two clip renovascular hypertensive Sprague-Dawley rat model assessed as heart rate at 15 to 30 mg/kg, po measured after 4 days of treatment by noninvasive sphygmomanometry; type: organism-based; settings: in vivo, 96 h, dose 15-30 mg/kg, time 4 day
# Rattus norvegicus [11] = assay: Antihypertensive activity against two-kidney two clip renovascular hypertensive Sprague-Dawley rat model assessed as decrease in systolic blood pressure at 15 to 30 mg/kg, po measured after 4 days of treatment by noninvasive sphygmomanometry; type: functional, organism-based; settings: dose 15-30 mg/kg, time 4.0 day
# [12] = target: T1, Type-1 angiotensin II receptor; assay: (§1) Displacement of [125-I]-[Sar1, AngII from AT1R (unknown origin) expressed in Escherichia coli BL 21 (DE3) incubated for 2 hrs by radioimmunoassay
# [13] = AUC (0-infinity) in two-kidney two clip renovascular hypertensive Sprague-Dawley rat model at 30 mg/kg, po by HPLC-MS/MS analysis; type: ADME, organism-based; design: route oral, time infinity, dose 30 mg/kg; settings: in vivo
# [14] = AUC (0-t) in two-kidney two clip renovascular hypertensive Sprague-Dawley rat model at 5 mg/kg, po by HPLC-MS/MS analysis; type: ADME, organism-based; design: dose 5 mg/kg; settings: in vivo
# [15] = target: T2, Type-1 angiotensin II receptor (Homo sapiens) (UniProt P30556); assay: as §1
# T2 sequence (whole entry): T1 sequence (P30556 whole entry)
# Rattus norvegicus [16] = assay: Antihypertensive activity against two-kidney two clip renovascular hypertensive Sprague-Dawley rat model assessed as decrease in systolic blood pressure at 8.3 mg/kg, po measured after 4 days of treatment by noninvasive sphygmomanometry; type: functional, organism-based; settings: time 4.0 day
smiles,measurement,setting,value
CCOC(=O)[C@@H](Cc1ccc(F)cc1)NC(=O)[C@@H](CC1CCCCC1)NC(=O)[C@@H](C)NC(=O)/C=C/c1ccc(O)c(O)c1,AUC,[1],19332.5 µg·min/L
same,Cmax,[2],220 ng/mL
same,Cmax,[3],446 ng/mL
same,AUC,[4],6088 µg·min/L
same,AUCt,[5],34243 µg·min/L
same,AUCt,[6],18123.5 µg·min/L
same,Activity,Rattus norvegicus [7],Active
same,Cmax,[8],80.6 ng/mL
same,Kd,[9],0.49 nM
same,Activity,[10],Non-Toxic
same,Activity,Rattus norvegicus [11],Active
same,IC50,[12],19.6 nM
same,AUC,[13],35096.1 µg·min/L
same,AUCt,[14],5707.6 µg·min/L
Cc1cc(Cn2cnc3c2C[C@@H](C(=O)O)N(C(=O)C(c2ccccc2)c2ccccc2)C3)ccc1N(C)C,Activity,[15],inactive
NC[C@H](O)c1ccc(O)c(O)c1,Activity,[15],inactive
CCCCC(=O)N(Cc1ccc(-c2ccccc2-c2nnn[nH]2)cc1)[C@H](C(=O)O)C(C)C,Activity,Rattus norvegicus [16],Active
O=C(O)/C=C/c1ccc(O)c(O)c1 [CAFFEIC ACID],IC50,[12],125 nM

# — ChEMBL document CHEMBL5032489, “Selective Discovery of GPCR Ligands within DNA-Encoded Chemical Libraries Derived from Natural Products: A Case Study on Antagonists of Angiotensin II Type I Receptor” (J Med Chem, 2021)
